Test results taken from US12466812B2, “Pyridinyltriazine derivative having protein kinase inhibitory activity, and pharmaceutical composition for preventing, ameliorating, or treating cancer comprising same” (KOREA INSTITUTE OF SCIENCE AND TECHNOLOGY, priority 2019, dated 2025).

Columns and labels:
Assay in all cases: Kinase panel biochemical assay
[1] = target: FGFR3 (Homo sapiens, UniProt P22607); settings: single concentration of 1 μM; panel of 369 kinases; read-out: kinase activity inhibited (%), FGFR3
Protocol: (§1) In order to measure the inhibitory activity (%) against protein kinases of the compounds of the present invention, biochemical assays were performed on a full kinase panel composed of 369 kinases.

[2] = target: FMS (Homo sapiens, UniProt P07333); settings: single concentration of 1 μM; panel of 369 kinases; read-out: kinase activity inhibited (%), FMS
Protocol: as §1

[3] = target: CDK4 (Homo sapiens, UniProt P11802); settings: single concentration of 1 μM; panel of 369 kinases; read-out: kinase activity inhibited (%), CDK4
Protocol: as §1

[4] = target: CDK6 (Homo sapiens, UniProt Q00534); settings: single concentration of 1 μM; panel of 369 kinases; read-out: kinase activity inhibited (%), CDK6
Protocol: as §1

[5] = target: PCTAIRE1 (Homo sapiens, UniProt Q00536); settings: single concentration of 1 μM; panel of 369 kinases; read-out: kinase activity inhibited (%), PCTAIRE1
Protocol: as §1

[6] = target: MPSK1 (Homo sapiens, UniProt O75716); settings: single concentration of 1 μM; panel of 369 kinases; read-out: kinase activity inhibited (%), MPSK1
Protocol: as §1

[7] = target: IRAK1 (Homo sapiens, UniProt P51617); settings: single concentration of 1 μM; panel of 369 kinases; read-out: kinase activity inhibited (%), IRAK1
Protocol: as §1

[8] = target: CLK2 (Homo sapiens, UniProt P49760); settings: single concentration of 1 μM; panel of 369 kinases; read-out: kinase activity inhibited (%), CLK2
Protocol: as §1

[9] = target: FGFR4 (Homo sapiens, UniProt P22455); settings: single concentration of 1 μM; panel of 369 kinases; read-out: kinase activity inhibited (%), FGFR4
Protocol: as §1

[10] = target: LYN (Homo sapiens, UniProt P07948); settings: single concentration of 1 μM; panel of 369 kinases; read-out: kinase activity inhibited (%), LYN
Protocol: as §1

[11] = target: LCK (Homo sapiens, UniProt P06239); settings: single concentration of 1 μM; panel of 369 kinases; read-out: kinase activity inhibited (%), LCK
Protocol: as §1

Measured: inhibition at 1 µM

CLK2, sequence (P49760 whole entry): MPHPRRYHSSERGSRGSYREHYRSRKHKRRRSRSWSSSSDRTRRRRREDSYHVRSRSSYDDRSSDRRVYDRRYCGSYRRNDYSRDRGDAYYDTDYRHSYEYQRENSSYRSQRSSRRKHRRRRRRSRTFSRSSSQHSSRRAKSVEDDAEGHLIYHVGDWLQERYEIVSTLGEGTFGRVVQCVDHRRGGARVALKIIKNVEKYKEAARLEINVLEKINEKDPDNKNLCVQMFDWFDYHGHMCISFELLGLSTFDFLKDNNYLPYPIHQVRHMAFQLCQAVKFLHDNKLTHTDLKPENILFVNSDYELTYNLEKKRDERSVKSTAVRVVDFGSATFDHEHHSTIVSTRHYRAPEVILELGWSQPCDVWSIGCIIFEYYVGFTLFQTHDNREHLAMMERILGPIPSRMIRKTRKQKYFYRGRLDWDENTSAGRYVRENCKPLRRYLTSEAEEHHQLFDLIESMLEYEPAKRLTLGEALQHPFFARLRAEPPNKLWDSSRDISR
LYN, sequence (P07948 whole entry): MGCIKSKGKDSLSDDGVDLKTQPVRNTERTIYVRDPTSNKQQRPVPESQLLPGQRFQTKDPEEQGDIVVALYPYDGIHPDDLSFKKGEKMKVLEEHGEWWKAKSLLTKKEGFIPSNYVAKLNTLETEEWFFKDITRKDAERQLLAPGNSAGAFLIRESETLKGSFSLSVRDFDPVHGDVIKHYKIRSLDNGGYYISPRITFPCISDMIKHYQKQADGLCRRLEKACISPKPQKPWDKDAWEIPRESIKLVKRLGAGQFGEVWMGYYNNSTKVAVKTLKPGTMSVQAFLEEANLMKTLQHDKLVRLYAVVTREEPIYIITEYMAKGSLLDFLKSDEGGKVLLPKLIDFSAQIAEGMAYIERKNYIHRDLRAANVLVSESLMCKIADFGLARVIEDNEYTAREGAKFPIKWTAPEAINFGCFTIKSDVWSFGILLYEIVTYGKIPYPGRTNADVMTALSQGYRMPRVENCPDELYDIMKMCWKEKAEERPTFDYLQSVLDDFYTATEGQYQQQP
FGFR3, sequence (P22607 23-806): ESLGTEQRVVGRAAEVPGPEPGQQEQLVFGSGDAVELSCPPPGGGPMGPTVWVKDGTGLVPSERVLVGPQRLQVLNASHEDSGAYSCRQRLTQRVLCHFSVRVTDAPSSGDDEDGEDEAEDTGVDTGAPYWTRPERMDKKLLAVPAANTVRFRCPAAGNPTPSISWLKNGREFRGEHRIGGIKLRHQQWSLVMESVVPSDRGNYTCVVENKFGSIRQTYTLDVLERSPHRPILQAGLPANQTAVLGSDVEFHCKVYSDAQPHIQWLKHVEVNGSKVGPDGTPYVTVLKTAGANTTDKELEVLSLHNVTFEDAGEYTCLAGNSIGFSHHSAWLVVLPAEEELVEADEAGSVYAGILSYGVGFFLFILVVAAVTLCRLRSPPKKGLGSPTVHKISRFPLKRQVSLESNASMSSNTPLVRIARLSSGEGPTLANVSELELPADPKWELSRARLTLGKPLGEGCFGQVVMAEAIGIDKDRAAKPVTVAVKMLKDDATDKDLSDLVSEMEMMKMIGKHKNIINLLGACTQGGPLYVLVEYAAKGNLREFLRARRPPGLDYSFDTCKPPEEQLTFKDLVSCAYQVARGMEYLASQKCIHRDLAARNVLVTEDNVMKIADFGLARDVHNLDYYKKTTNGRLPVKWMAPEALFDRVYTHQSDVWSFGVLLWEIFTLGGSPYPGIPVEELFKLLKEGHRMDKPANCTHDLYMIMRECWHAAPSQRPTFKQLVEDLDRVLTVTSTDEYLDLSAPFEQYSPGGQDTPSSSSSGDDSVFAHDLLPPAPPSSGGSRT
FMS, sequence (P07333 20-972): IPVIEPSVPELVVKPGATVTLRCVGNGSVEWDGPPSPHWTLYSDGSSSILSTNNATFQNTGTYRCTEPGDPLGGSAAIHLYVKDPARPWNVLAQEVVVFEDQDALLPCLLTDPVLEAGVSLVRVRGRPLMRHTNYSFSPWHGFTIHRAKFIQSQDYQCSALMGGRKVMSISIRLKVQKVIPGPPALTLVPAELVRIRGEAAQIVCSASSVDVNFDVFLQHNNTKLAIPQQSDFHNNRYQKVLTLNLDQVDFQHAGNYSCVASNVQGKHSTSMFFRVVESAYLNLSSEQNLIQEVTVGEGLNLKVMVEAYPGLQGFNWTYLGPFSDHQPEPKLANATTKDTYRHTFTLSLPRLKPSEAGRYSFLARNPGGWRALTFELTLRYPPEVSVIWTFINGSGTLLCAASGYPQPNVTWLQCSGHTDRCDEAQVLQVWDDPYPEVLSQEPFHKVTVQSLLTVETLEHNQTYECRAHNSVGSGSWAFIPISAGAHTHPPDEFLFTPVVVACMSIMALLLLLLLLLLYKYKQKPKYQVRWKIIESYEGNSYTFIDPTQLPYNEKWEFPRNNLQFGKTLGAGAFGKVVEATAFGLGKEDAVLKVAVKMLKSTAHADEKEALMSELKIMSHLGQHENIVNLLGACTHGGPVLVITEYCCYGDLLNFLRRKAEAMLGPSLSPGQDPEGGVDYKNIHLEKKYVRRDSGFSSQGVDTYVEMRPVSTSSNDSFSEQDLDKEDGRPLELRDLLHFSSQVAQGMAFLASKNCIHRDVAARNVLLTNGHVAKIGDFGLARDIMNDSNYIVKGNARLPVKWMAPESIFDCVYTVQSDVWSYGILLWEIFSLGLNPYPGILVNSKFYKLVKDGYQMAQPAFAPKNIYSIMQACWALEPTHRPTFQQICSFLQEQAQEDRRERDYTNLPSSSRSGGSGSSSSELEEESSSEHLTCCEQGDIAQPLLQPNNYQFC
CDK4, sequence (P11802 whole entry): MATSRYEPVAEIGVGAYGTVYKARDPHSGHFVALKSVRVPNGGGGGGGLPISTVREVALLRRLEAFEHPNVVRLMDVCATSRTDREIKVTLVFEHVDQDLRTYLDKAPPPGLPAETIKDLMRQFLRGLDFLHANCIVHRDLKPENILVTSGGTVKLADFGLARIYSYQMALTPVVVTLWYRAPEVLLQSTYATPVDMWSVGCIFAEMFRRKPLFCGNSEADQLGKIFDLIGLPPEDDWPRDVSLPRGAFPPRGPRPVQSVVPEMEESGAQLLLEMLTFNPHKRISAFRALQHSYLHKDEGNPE
CDK4, sequence (P24385 whole entry partner): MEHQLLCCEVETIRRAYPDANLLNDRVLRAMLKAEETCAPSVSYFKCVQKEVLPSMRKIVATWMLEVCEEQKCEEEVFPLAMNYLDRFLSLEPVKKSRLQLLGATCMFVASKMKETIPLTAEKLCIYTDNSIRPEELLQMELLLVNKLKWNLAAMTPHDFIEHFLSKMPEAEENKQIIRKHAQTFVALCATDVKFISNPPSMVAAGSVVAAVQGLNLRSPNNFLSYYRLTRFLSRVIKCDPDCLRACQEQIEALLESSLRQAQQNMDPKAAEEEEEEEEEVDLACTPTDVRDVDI
IRAK1, sequence (P51617 whole entry): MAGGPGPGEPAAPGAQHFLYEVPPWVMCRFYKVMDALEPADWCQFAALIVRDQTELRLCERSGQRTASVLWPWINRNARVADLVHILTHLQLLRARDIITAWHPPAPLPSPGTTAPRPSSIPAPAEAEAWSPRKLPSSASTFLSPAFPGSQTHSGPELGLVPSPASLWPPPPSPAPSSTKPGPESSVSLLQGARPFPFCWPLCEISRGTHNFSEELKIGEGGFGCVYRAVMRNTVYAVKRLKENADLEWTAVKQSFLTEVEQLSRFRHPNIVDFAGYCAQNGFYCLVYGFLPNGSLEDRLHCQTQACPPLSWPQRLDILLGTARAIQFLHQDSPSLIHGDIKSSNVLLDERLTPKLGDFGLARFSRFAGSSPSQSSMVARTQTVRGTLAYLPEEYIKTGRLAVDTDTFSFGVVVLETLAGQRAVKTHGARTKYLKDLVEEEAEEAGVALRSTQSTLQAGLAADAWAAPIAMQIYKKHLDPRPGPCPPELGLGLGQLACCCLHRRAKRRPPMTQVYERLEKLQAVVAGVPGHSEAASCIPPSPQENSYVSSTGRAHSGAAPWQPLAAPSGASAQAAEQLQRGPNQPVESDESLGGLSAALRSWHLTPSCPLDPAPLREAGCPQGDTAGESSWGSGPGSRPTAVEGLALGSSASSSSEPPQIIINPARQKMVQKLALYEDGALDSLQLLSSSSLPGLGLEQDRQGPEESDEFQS
MPSK1, sequence (O75716 whole entry): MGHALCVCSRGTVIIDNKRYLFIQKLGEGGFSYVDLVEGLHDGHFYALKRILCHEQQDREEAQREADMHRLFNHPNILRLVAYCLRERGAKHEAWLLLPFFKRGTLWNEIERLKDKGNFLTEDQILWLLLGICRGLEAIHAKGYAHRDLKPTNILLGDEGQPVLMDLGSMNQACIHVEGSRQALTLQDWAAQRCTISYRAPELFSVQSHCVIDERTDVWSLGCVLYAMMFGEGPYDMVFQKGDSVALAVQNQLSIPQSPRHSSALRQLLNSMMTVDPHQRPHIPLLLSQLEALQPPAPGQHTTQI
CDK6, sequence (Q00534 whole entry): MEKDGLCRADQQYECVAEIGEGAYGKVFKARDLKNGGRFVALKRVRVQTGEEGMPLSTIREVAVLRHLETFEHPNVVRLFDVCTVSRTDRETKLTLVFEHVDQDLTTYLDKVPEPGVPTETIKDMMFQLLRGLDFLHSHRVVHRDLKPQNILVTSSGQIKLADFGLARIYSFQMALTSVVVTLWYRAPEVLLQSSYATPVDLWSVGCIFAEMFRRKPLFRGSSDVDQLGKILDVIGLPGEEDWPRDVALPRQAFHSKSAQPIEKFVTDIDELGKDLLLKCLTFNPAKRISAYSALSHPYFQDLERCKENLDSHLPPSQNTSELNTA
CDK6, sequence (P30281 whole entry partner): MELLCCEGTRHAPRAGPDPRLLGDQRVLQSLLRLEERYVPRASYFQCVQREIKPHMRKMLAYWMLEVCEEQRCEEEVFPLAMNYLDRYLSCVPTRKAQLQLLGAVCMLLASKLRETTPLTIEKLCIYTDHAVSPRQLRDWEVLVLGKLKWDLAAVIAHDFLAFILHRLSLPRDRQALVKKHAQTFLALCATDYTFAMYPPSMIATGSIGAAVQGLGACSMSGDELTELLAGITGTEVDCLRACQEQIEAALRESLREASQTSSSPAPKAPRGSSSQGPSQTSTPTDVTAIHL

CCN1CCN(c2ccc(Nc3ncnc(-c4cccnc4Nc4c(Cl)c(OC)cc(OC)c4Cl)n3)cc2)CC1 [Example 1]
≥ 90%: all assays above
